Reference: patent publication US10927078B2, “Modulators of indoleamine 2,3-dioxygenase” (GLAXOSMITHKLINE INTELLECTUAL PROPERTY DEVELOPMENT LIMITED, priority 2017, dated 2021)

target: indoleamine 2, 3-dioxygenase (IDO1) (Homo sapiens, UniProt P14902); assay: PBMC IDO1 assay (kynurenine via mass spectrometry); format: cell-based; settings: not given
Procedure, shortened: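 Human PBMCs (50,000/well) stimulated with IFN-γ 100 ng/ml and LPS 50 ng/ml to induce IDO1, exposed to 11-point 3-fold compound dilutions for 2 days at 37° C. Supernatant kynurenine measured by RapidFire MS relative to internal standard; XC50 from four-parameter fit. Cytotoxicity tracked in parallel by ATP luminescence.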

Chain of indoleamine 2, 3-dioxygenase (IDO1) (P14902 whole entry): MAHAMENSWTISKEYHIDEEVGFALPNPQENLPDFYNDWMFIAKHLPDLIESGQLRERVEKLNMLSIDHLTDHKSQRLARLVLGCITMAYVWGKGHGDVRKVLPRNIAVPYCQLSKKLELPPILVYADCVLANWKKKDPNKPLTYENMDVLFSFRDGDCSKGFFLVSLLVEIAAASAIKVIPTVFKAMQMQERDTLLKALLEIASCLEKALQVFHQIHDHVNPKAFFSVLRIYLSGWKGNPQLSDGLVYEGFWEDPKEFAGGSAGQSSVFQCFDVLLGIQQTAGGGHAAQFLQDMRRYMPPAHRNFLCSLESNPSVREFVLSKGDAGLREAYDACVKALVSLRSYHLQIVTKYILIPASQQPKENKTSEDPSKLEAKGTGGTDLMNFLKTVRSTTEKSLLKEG

Structure (SMILES)	IC50 [nM]
O=C(N[C@H](CCCO)C1CCN(C(=O)Oc2cccnc2F)CC1)c1ccc(F)cc1 [Example 97, 2-fluoropyridin-3-yl 4-[(1R)-1-[(4-fluorophenyl)formamido]-4-hydroxybutyl]piperidine-1-carboxylate]	1260
Cc1ncccc1OC(=O)N1CCC([C@@H](CC(C)C)NC(=O)c2ccc(Cl)cc2)CC1 [Example 104, (R)-2-methylpyridin-3-yl 4-(1-(4-chlorobenzamido)-3-methylbutyl)piperidine-1-carboxylate]	1.26
COc1ncccc1OC(=O)N1CCC([C@@H](CC(C)C)NC(=O)c2ccc(F)cc2)CC1 [Example 105, (R)-2-methoxypyridin-3-yl 4-(1-(4-fluorobenzamido)-3-methylbutyl)piperidine-1-carboxylate]	1.26

same assay, conditions: human PBMC stimulated with IFN-γ and LPS, 2 days, kynurenine by mass spectrometry; recorded as pIC50

Structure (SMILES)	PBMC PXC50_
COc1ccc(OC(=O)N2CCC(C(NC(=O)c3ccc(F)cc3)c3ccncc3)CC2)cn1 (stereo not drawn) [Example 99, 6-methoxpyridin-3-yl 4-{[(4-fluorophenyl)formamido](pyridin-4-yl)methyl}piperidine-1-carboxylate]	5.6

same assay, conditions: human PBMC stimulated with IFN-γ and LPS, 2 days, kynurenine by mass spectrometry; recorded as pIC50; read-out: PBMC PXC50_ (converted)

Structure (SMILES)	IC50 [nM]
O=C(N[C@@H](C1CC1)C1CCN(C(=O)Oc2ccccc2)CC1)c1ccc(Cl)s1 [Example 91, phenyl 4-[(S)-[(5-chlorothiophen-2-yl)formamido](cyclopropyl)methyl]piperidine-1-carboxylate]	631
Cc1c(F)cccc1OC(=O)N1CCC([C@H](C)NC(=O)c2ccc(Cl)s2)CC1 [Example 92, 3-fluoro-2-methylphenyl 4-[(1S)-1-[(5-chlorothiophen-2-yl)formamido]ethyl]piperidine-1-carboxylate]	631
COc1cc(OC(=O)N2CCC(C(NC(=O)c3ccc(F)cc3)c3ccncc3)CC2)ccn1 (stereo not drawn) [Example 93, 2-methoxpyridin-4-yl 4-{[(4-fluorophenyl)formamido](pyridin-4-yl)methyl}piperidine-1-carboxylate]	794
O=C(NC(c1ccncc1)C1CCN(C(=O)Oc2ccncc2)CC1)c1ccc(F)cc1 (stereo not drawn) [Example 94, pyridin-4-yl 4-{[(4-fluorophenyl)formamido](pyridin-4-yl)methyl}piperidine-1-carboxylate]	1000
C[C@H](NC(=O)c1ccc(Cl)s1)C1CCN(C(=O)Oc2ccccc2)CC1 [Example 95, phenyl 4-[(1S)-1-[(5-chlorothiophen-2-yl)formamido]ethyl]piperidine-1-carboxylate]	1000
O=C(NC(c1ccncc1)C1CCN(C(=O)Oc2ccccn2)CC1)c1ccc(F)cc1 (stereo not drawn) [Example 96, pyridin-2-yl 4-{[(4-fluorophenyl)formamido](pyridin-4-yl)methyl}piperidine-1-carboxylate]	1260
CC(C)(C)OC(=O)N1CCC(C(NC(=O)c2ccccc2)c2ccccc2)CC1 (stereo not drawn) [Example 98, tert-butyl 4-[phenyl(phenylformamido)methyl]piperidine-1-carboxylate]	1580
O=C(NC(c1ccncc1)C1CCN(C(=O)OC2CCCCC2)CC1)c1ccc(F)cc1 (stereo not drawn) [Example 100, cyclohexyl 4-{[(4-fluorophenyl)formamido](pyridin-4-yl)methyl}piperidine-1-carboxylate]	3160
Cc1c(OC(=O)N2CCC([C@@H](C)NC(=O)c3ccc(Cl)s3)CC2)ccnc1F [Example 101, 2-fluoro-3-methylpyridin-4-yl 4-[(1R)-1-[(5-chlorothiophen-2-yl)formamido]ethyl]piperidine-1-carboxylate]	3160
CC(C)(C)OC(=O)N1CCC(C(NC(=O)c2cccnc2)c2ccccc2)CC1 (stereo not drawn) [Example 102, tert-butyl 4-{phenyl[(pyridin-3-yl)formamido]methyl}piperidine-1-carboxylate]	5010
NC(=O)c1ccc(C(=O)NC(c2ccccc2)C2CCN(C(=O)Oc3ccccc3)CC2)nc1 (stereo not drawn) [Example 103, phenyl 4-{[(5-carbamoylpyridin-2-yl)formamido](phenyl)methyl}piperidine-1-carboxylate]	10000
